Measurements taken from patent US20210205292A1, “INHIBITORS OF CREB-CBP INTERACTION FOR TREATMENT OF LEUKEMIA” (The Board of Trustees of the Leland Stanford Junior …, priority 2016, published 2021).
“Also recorded” adds a separate entry of the source.

Experiments:
[1] = molecular target: T1, KIX domain of CBP, Arginine-600 to Alanine mutant (GST fusion) (Homo sapiens, UniProt Q92793, R601A); test: Biacore surface plasmon resonance, binding to KIX Arg-600-Ala mutant versus native KIX; details: 5 μM
T1 construct: spans CBP amino acids 586-666; made in house; host or cells: E. coli BL21(DE3)
T1 sequence (Q92793 586-666 R601A): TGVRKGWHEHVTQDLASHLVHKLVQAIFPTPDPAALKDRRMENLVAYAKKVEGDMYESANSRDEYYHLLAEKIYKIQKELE
Experimental: KIX domain mutants were created by standard cloning and mutagenesis methods in the pGEX4T3 vector (GE Healthcare Life Sciences). GST-KIX fusion proteins were expressed in BL21(DE3-) cells (New England Biolabs) following induction with 1 mM IPTG for 6 hours at 37 degrees. GST-KIX and its mutants were purified with the B-PER GST Fusion Protein Spin Purification Kit (Thermo Scientific/Pierce). Surface Plasmon Resonance (Biacore) analysis was performed on a GE Biacore 3000 surface plasmon resonance instrument in collaboration with the Stanford Protein and Nucleic Acid (PAN) Facility.
To confirm the binding of Compound A to the KIX domain of CBP, the KIX domain was expressed and purified as a fusion protein with Glutathione-S-Transferase (GST). Binding of Compound A to the KIX domain and two KIX domain mutants in which residues critical for CREB binding were altered or removed (Arg-600 mutated to Alanine or deletion of amino acids 586-602) was determined by Surface Plasmon Resonance (Biacore) analysis (FIG. 1, panel B). Mutation of Arginine-600 to Alanine reduced binding of Compound A by ˜45%, while a KIX domain mutant lacking amino acids 586-602 reduced binding by ˜70%. […] A hypothetical binding model between Compound A and CBP KIX domain is shown (FIG. 1, panel C). […]

CREB/CBP association = molecular target: T2, CREB/CBP association (Homo sapiens, UniProt Q92793); test: Anti-CBP immunoprecipitation of CREB-transfected HEK293 cells; type: cell-based; details: HEK293 lysates or cells, 5 μM, 1 hour
T2 construct: endogenous in cells; host or cells: HEK293 cells (CBP endogenous; CREB from a transfected plasmid)
T2 sequence (Q92793 whole entry): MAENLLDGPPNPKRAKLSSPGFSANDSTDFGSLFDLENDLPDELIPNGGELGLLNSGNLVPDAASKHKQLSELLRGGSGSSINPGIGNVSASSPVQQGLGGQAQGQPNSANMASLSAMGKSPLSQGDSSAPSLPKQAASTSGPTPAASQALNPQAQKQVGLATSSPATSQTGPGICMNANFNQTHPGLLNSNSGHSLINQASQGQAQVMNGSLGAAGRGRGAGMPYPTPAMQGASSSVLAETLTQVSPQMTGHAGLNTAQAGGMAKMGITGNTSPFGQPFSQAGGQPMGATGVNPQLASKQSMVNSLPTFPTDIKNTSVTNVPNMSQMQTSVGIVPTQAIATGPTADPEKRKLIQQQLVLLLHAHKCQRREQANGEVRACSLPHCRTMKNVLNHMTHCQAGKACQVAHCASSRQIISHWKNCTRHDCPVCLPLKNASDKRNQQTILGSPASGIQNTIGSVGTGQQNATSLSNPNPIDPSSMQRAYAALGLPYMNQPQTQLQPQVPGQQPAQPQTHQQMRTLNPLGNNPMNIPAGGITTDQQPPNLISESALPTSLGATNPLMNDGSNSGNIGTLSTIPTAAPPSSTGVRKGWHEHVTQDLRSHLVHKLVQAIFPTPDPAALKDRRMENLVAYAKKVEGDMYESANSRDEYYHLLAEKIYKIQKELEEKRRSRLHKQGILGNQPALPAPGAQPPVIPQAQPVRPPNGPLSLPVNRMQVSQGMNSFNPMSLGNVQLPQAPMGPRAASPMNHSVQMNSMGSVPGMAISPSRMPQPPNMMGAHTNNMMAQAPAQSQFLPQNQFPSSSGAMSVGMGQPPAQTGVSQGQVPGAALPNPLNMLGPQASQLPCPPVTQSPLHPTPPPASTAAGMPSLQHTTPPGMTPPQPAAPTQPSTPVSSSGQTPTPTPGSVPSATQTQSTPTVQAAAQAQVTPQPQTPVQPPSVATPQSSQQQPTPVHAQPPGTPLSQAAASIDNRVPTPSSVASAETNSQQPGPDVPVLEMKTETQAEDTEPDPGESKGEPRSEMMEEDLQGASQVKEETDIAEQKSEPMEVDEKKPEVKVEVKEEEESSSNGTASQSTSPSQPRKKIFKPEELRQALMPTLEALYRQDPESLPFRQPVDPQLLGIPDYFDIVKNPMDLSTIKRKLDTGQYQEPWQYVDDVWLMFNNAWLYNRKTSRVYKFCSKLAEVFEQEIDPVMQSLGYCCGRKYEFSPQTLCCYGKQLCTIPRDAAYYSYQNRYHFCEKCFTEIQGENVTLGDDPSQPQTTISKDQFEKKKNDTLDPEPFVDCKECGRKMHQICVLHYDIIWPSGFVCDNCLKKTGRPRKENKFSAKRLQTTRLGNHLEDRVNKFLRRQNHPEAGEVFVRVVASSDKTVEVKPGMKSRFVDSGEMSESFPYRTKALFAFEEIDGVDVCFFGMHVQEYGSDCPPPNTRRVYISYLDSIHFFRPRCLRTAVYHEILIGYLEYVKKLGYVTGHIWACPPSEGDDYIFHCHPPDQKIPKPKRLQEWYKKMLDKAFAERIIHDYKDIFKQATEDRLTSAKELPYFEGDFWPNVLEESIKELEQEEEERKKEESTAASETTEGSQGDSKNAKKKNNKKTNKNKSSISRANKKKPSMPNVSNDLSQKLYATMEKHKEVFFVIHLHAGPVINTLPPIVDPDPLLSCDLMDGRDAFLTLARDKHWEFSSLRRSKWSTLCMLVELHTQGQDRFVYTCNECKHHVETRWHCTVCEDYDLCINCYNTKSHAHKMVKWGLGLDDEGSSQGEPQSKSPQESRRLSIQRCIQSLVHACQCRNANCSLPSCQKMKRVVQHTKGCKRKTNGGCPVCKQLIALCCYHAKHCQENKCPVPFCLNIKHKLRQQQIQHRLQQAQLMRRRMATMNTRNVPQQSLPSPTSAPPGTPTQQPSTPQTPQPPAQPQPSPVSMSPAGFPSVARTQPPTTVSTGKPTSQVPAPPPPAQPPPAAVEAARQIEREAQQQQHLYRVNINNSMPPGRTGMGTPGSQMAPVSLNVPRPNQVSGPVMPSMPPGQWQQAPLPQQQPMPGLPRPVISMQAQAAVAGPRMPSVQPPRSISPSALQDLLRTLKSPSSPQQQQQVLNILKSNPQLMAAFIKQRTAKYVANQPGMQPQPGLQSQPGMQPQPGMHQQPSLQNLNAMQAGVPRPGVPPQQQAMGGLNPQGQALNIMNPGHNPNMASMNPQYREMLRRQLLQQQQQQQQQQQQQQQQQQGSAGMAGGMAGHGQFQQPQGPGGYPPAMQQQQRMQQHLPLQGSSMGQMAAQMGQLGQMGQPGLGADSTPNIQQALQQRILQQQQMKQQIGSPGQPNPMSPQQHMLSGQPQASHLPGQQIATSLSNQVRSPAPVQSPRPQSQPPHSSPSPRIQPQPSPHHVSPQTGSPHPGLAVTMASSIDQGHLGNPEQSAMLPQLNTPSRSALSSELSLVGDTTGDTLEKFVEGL
Experimental: Mutation of Arginine-600 to Alanine reduced binding of Compound A by ˜45% at a concentration of 5 μM, while a KIX mutant lacking amino acids 586-602 reduced binding by ˜70%. Panel C) Binding model of Compound A to CBP KIX domain. […] Panel E). Two KG-1 cell lines were generated in which luciferase was expressed either under the control of a CREB-driven promoter (CRE) or a CMV-driven promoter (CMV). These two cell lines were each treated with a range of Compound A or Analog B concentrations for 6 hours. […] HEK293 cells were transfected with a plasmid expressing CREB. Cells were treated with Compound A (A, 5 μM, lane 3) or DMSO vehicle (D) for 1 hour. Total lysates of transfected HEK293 cells were immunoprecipitated using anti-CBP antibody. Compound A (A, 5 μM) was added during anti-CBP Immunoprecipation process (lane 1). Immunoprecipitates (CBP-IP) and total lysates were analyzed by immunoblotting for phospho-CREB (p-CREB) and CBP.
To test the ability of Compound A to disrupt CREB-CBP binding in cells, a split Renilla luciferase complementation assay was performed. […] This early timepoint was selected to permit accurate reporter gene activity measurement prior to the onset of anticipated global cell dysfunction or death induced by Compound A. Treatment with 3 μM Compound A reduced luciferase activity by 33.2±7.7% at this timepoint. […]

[2] = system: H3K27 acetylation at CREB-bound genes; test: Whole-genomic H3K27 histone acetylation analysis in KG-1 cells; type: cell-based; details: 5 μM
[3] = In vivo toxicity in NSG mice not injected with AML cells; parameters: species or system mouse
Experimental: To assess the potential in vivo toxicities of Compound A, four groups of five mice not injected with AML cells were treated with 2.3 mg/kg Compound A intravenously daily, or 20, 40 or 60 mg/kg intraperitoneally (IP) daily for 28 days.

CREB phosphorylation = CREB phosphorylation in HL-60 cells; type: cell-based, human
From the text: FIG. 12, panels A-D, illustrates the results of CyTOF Phenotyping and Compound A Combination Studies. […] Viability for Compound A treatment alone was 87.4±7.3%, versus 55.3±3.4% and 49.5±2.3% when combined with ERK and RSK inhibitors, respectively (* indicates p<0.05 compared to cells treated with Compound A alone). Panel D) Compound A inhibits CREB phosphorylation in the presence of serum. HL-60 cells were serum-starved then stimulated with serum.
Cells were lysed in RIPA buffer (Sigma), and the protein concentrations were determined by BCA assay (Thermo Scientific Pierce). Lysates were solubilized in 6×SDS PAGE buffer and […] of protein was loaded into 6-15% SDS PAGE gels, pheresed, and then transferred onto […] PVDF membrane (Millipore). Primary antibodies were applied at a dilution of 1:1000. Anti-Bcl-2, -Bax, -Mcl-1, -Bcl-XL, -Cyclin A and -Cyclin D1 antibodies were purchased from Cell Signaling Technologies. Anti-total acetylated histone and -ac-H3K27 were purchased from Santa Cruz Biotechnologies. Anti-actin and -CREB antibodies were purchased from upstate. Secondary antibodies were used at a 1:2500 dilution and purchased from Thermo Scientific/Pierce. WesternBright ECL was used for image acquisition on Image Lab software (Bio-Rad).

[4] = 2.3 mg/kg IV or 20, 40 or 60 mg/kg IP daily, 28 days

For `N#Cc1ccc(NC(=O)c2cc3ccccc3cc2O)cc1` [Compound A, N-(4-cyanophenyl)-3-hydroxy-2-naphthamide], the “reduction of binding of Compound A by mutation of Arginine-600 to Alanine” value [1] was about 45%, the “binding of CREB to CBP (immunoprecipitation)” value (CREB/CBP association) was “inhibits CREB/CBP association; also recorded: prevented binding of CREB to CBP” and the “CREB-bound genes with decreased H3K27 histone acetylation” value [2] was “Greater than 95%”. For the same compound, the “complete blood counts, liver function tests and kidney function tests” value [3, 4] was “no difference; also recorded: normal complete blood counts, liver function tests and kidney function tests”, the tissue histology [3, 4] was “no evidence of fibrosis or damage; also recorded: no microscopic evidence of vital organ damage” and the animal body weight ([3]; over 28 days) was “no decrease in animal body weight”. For the same compound, the “CREB phosphorylation in the presence of serum” value (CREB phosphorylation; HL-60 cells serum-starved then stimulated with serum, 48 hours) was “CREB phosphorylation decreases” and the CREB phosphorylation (CREB phosphorylation; HL-60 cells, 24 hours) was “increase in CREB phosphorylation”.
